Reference: patent US20140309295A1, “ANTIEPILEPTIC, HYPOCHOLESTEROLEMIC AND NEUROPROTECTIVE COMPOUND” (NEURON BIOPHARMA, S.A., priority 2009, published 2014)

Legend:
[1] = test system: human neuroblastoma SK-N-MC cells; test: Protection against neuronal death induced by inhibition of succinate dehydrogenase (3-NP), WST-1; format: cell-based; settings: 40 μM NST0037; 30 μM 3-NP
Description: The assay was performed on human neuroblastoma SK-N-MC cells in culture from the American Type Culture Collection (ATCC), in all cases strict rules of sterility were followed and the manipulation was performed in class II biological safety cabinets following European standard EN 12469. The cells were maintained in the following culture medium: Minimum Essential Medium Eagle (MEM) supplemented with 1 mM sodium pyruvate, 2 mM L-glutamine, 0.1 mM non-essential amino acids, 0.05 mg/ml gentamicin and 10% fetal bovine serum.
The inhibition caused by compound NST0037 of cell death caused by treatment with 3-Nitropropionic (3-NP) acid was analyzed. 3-NP is an irreversible inhibitor of the succinate dehydrogenase enzyme which in animal models causes oxidative stress and apoptotic cell death in the striatum, which mimics neurochemical and anatomical changes associated with Huntington's disease (HD). […]
The cells were incubated (at 37° C. and 5% CO2) with these treatments for 22 hours, after which time the WST-1 reagent (Roche) was added. […] The formazan which is formed can be detected colorimetrically since it has an absorbance of 440 nm. The reading was taken in a plate reader at 440 nm 2 hours after adding the reagent.

[2] = test system: caspase 3/7; test: Inhibition of camptothecin-induced activation of caspase 3/7 in SK-N-MC cells; format: cell-based, human; settings: 50 μM CPT, 6 h
Description: The assay was performed on human neuroblastoma SK-N-MC cells in culture from the American Type Culture Collection (ATCC), in all cases strict rules of sterility were followed and the manipulation was performed in class II biological safety cabinets following European standard EN 12469. The cells were maintained in the following culture medium: Minimum Essential Medium Eagle (MEM) supplemented with 1 mM sodium pyruvate, 2 mM L-glutamine, 0.1 mM non-essential amino acids, 0.05 mg/ml gentamicin and 10% fetal bovine serum. The induction of apoptosis on the cells in culture was performed by means of incubation with camptothecin (CPT), which triggers cell apoptosis activation. The apoptosis was determined by means of the measurement of the activation of effector caspases, caspase 3 or caspase 7, for which a kit for the fluorometric detection of active caspase 3/7 (Apo-ONE® Homogeneous Caspase-3/7, Promega) was used. The active caspase 3 or 7 of the cells cause the rupture of a substrate, which leads to fluorescence emission, which is read by means of a fluorometer. The effect of the pretreatment of compound NST0037 at 10 and 40 μM on the activation of caspase 3/7 caused by 50 μM of camptothecin (CPT) in the SK-N-MC cells was thus analyzed. These cells, not exceeding 15 passages, were seeded on 96-well plates treated for adherent cells with a cell concentration of 5×10^4 cells/well, 3 wells of the plate were seeded for each condition of the assay. After 24 hours of cell incubation at 37° C. and 5% CO2, the pretreatment with NST0037 at 10 and 40 μM was performed. […] On the following day, fluorescence was measured (499/521 nm, […]).

[3] = test system: ApoB100 mice; test: Hypocholesterolemic effect, oral three months, endogenous hyperlipidemia model; format: in vivo; settings: 50 mg/kg oral, 3 months
Description: All the animals included for the experimental process were 6-month old female mice. The experiments were conducted strictly following the Guidance on the Operation of Animals (Scientific Procedures, Act. 1986). The animals had their respective quarantine period and were treated with maximum precaution to minimize possible contaminations for inoculations and handling.
After a conditioning to the diet, 50 mg/kg of NST0021 or NST0037 were orally administered to the mice for 3 months, three times a week, using in both cases 0.25% carboxy methylcellulose in physiological saline as a vehicle. The control group received this same vehicle. Before starting the treatments and at one, two and three months of starting them, retro-orbital blood extractions after fasting for 16 hours were carried out. The plasma was obtained from said blood, in which the total cholesterol (TC), free cholesterol (FC), cholesterol (EC), HDL-c, LDL-c, VLDL-c levels were evaluated by enzymatic and spectrophotometric techniques.

SMILES: CCC(CC)C(=O)O[C@H]1C[C@@H](C)C=C2C=C[C@H](C)[C@H](CC[C@@H]3C[C@@H](O)CC(=O)O3)[C@H]21 [NST0037, (1S,2S,6R,8S,8aR)-1,2,6,7,8,8a-hexahydro-3,7-dimethyl-8-[2-[(2R,4R)-tetrahydro-4-hydroxy-6-oxo-2H-pyran-2-yl]ethyl]-1-naphthalenyl-2-ethyl-butyrate]
- protection against death caused by 3-NP [1]: 41%
- inhibition of caspase 3/7 with respect to camptothecin ([2]; pretreatment 10 μM NST0037): 26%
- inhibition of caspase 3/7 with respect to camptothecin ([2]; pretreatment 40 μM NST0037): 33%
- FC and EC levels [3]: significant reduction of both FC and EC
- HDL-c levels [3]: increase the HDL-c levels
- LDL-c levels vs simvastatin [3]: reduced to a greater extent
- cholesterol fractions ([3]; three times a week, female apoB100 mice): reduced the different cholesterol fractions
